Like-named read-outs stand apart in the source and are kept apart here.
Assays:
Assay in all cases: SelectScreen Kinase Profiling, single point inhibition and IC50 for off-target kinases
Assay type in all cases: biochemical
off-target kinases [1] = target: off-target kinases (Homo sapiens, UniProt Q9UPE1); details: STK23 (MSSK1), ZLYTE, ATP Km app
off-target kinases [2] = target: off-target kinases (Homo sapiens, UniProt Q86UX6)
off-target kinases [3] = target: T1, off-target kinases (Homo sapiens, UniProt P53778); details: MAPK12 (p38 gamma), ZLYTE, ATP Km app
T1 sequence (P53778 1-367): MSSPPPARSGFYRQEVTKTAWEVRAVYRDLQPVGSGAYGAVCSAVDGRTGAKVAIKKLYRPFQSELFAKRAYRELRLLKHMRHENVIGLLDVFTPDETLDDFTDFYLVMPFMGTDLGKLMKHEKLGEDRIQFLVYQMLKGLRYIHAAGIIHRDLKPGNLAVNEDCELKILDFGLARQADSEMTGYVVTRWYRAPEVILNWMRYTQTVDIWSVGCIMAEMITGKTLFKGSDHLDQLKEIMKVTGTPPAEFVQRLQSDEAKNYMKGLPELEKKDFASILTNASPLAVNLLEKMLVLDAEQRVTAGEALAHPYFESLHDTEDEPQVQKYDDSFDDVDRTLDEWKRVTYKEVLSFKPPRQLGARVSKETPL

off-target kinases [4] = target: T2, off-target kinases (Homo sapiens, UniProt Q16832); details: DDR2, LanthaScreen Binding
T2 sequence (Q16832 22-855): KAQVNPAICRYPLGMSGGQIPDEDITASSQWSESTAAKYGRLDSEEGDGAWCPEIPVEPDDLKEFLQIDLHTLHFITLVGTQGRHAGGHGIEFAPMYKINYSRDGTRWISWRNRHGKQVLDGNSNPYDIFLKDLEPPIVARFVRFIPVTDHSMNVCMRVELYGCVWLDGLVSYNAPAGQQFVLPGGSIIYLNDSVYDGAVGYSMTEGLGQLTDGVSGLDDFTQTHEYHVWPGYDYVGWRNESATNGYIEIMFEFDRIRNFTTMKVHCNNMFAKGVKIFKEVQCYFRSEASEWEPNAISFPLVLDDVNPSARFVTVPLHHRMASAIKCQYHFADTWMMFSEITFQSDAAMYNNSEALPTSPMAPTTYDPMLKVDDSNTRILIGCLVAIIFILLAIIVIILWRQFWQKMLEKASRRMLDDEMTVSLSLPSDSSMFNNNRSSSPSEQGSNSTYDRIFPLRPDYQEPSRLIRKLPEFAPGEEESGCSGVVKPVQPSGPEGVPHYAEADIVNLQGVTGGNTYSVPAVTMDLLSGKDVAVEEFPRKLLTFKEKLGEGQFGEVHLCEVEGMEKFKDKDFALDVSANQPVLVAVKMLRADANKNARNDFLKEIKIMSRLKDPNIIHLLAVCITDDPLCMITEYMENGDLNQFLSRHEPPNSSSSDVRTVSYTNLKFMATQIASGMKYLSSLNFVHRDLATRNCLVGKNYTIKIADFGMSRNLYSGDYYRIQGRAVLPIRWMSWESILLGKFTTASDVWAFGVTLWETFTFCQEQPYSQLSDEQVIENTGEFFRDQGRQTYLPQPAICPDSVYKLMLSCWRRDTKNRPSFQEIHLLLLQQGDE

off-target kinases [5] = target: off-target kinases (Homo sapiens, UniProt Q9H4B4); details: PLK3, ATP Km app, ZLYTE
off-target kinases (Homo sapiens, UniProt Q9H4B4), sequence (Q9H4B4 whole entry): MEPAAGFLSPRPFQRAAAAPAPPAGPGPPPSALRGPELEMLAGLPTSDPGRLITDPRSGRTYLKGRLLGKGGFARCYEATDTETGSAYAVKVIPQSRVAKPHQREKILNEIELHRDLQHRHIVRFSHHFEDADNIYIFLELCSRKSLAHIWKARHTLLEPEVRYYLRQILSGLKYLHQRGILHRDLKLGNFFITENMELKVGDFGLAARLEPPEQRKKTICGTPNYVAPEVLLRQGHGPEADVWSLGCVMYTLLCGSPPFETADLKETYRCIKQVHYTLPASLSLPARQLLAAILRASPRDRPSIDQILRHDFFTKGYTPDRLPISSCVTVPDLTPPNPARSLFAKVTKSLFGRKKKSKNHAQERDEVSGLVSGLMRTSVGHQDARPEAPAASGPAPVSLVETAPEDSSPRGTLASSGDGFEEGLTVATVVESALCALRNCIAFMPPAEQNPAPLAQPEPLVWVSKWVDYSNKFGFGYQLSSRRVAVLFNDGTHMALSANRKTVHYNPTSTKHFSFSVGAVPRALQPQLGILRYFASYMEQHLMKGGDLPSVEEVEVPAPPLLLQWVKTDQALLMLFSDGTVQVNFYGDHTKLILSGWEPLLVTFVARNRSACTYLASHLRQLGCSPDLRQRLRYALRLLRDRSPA

off-target kinases [6] = target: off-target kinases (Homo sapiens, UniProt P19525); details: EIF2AK2 (PKR), LanthaScreen Binding
off-target kinases (Homo sapiens, UniProt P19525), sequence (P19525 whole entry): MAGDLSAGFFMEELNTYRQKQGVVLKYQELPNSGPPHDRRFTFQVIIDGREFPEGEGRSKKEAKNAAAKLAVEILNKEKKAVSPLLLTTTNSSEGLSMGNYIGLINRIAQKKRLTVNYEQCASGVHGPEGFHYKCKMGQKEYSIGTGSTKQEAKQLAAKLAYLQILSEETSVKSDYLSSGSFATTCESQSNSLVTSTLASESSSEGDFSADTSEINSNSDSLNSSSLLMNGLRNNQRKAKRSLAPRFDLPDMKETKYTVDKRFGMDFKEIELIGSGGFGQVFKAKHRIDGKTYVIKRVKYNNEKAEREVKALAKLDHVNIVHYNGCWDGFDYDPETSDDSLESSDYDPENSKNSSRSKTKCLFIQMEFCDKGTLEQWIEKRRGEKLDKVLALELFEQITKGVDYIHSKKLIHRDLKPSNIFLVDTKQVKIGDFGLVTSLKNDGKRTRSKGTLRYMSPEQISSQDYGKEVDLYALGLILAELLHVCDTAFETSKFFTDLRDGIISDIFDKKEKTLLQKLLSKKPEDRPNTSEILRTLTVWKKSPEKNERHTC

off-target kinases (Homo sapiens, UniProt Q9UPE1), sequence (Q9UPE1 whole entry): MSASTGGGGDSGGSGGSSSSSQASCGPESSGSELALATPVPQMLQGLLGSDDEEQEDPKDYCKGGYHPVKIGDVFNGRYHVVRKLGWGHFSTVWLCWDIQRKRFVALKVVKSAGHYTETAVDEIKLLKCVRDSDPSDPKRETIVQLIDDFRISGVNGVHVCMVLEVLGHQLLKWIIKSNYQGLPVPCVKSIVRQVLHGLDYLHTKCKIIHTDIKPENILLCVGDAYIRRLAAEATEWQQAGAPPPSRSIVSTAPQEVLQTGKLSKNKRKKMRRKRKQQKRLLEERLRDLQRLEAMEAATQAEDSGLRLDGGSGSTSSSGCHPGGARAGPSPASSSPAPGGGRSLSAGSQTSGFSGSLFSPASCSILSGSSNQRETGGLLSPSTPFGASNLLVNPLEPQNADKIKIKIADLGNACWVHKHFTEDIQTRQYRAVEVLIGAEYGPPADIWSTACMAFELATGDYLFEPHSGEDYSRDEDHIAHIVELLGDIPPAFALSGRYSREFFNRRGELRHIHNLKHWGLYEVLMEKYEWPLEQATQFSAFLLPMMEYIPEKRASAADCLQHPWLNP
off-target kinases (Homo sapiens, UniProt Q86UX6), sequence (Q86UX6 whole entry): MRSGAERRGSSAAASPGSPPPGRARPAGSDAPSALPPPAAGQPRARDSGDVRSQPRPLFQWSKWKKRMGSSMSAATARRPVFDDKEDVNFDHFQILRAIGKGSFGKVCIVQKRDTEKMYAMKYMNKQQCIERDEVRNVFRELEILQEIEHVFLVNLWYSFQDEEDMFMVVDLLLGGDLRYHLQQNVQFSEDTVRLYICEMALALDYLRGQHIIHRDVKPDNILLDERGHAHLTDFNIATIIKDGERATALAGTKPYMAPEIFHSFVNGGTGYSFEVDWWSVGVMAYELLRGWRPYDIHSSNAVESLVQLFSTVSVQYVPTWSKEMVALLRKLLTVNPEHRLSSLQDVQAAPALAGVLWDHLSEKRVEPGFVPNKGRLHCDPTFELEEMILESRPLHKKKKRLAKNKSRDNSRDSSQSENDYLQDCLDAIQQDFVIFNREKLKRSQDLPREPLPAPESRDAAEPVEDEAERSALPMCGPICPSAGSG

N#Cc1cc(-c2ncnc(Nc3ccc(N4CCN(C5COC5)CC4)cc3)n2)ccc1OC1CCOCC1 [Compound 1, 5-(4-((4-(4-(oxetan-3-yl)piperazin-1-yl)phenyl)amino)-1,3,5-triazin-2-yl)-2-((tetrahydro-2H-pyran-4-yl)oxy)benzonitrile]
inhibition (off-target kinases [1]; read-out: % Inhibition 1): 2% | inhibition (off-target kinases [1]; read-out: % Inhibition 2): 1% | inhibition (off-target kinases [1]; read-out: % Inhibition Avg): 2% | inhibition (off-target kinases [2]; STK32C (YANK3), LanthaScreen Binding, read-out: % Inhibition 1): -4% | inhibition (off-target kinases [2]; STK32C (YANK3), LanthaScreen Binding, read-out: % Inhibition 2): 3% | inhibition (off-target kinases [2]; read-out: % Inhibition Avg): -1% | inhibition (off-target kinases [3]; read-out: % Inhibition 1): 4% | inhibition (off-target kinases [3]; read-out: % Inhibition 2): 3% | inhibition (off-target kinases [3]; read-out: % Inhibition Avg): 3% | inhibition (off-target kinases [4]; read-out: % Inhibition 1): 0% | inhibition (off-target kinases [4]; read-out: % Inhibition 2): 1% | inhibition (off-target kinases [4]; read-out: % Inhibition Avg): 0% | inhibition (off-target kinases [5]; read-out: % Inhibition 1): 80% | inhibition (off-target kinases [5]; read-out: % Inhibition 2): 76% | inhibition (off-target kinases [5]; read-out: % Inhibition Avg): 78% | inhibition (off-target kinases [6]; read-out: % Inhibition 1): 90% | inhibition (off-target kinases [6]; read-out: % Inhibition 2): 89% | inhibition (off-target kinases [6]; read-out: % Inhibition Avg): 89%
